Measurements published in PubChem BioAssay AID1963977 (Molecular Pharmacology Branch, DTP, NCI, 2024).

Test system: 624824-186-R-J3-PDC multicell spheroids, viability
Assay: Anticancer human tumor 624824-186-R-J3-PDC patient-derived colon adenocarcinoma cell line growth inhibition [PI3K]
Conditions: for viability, T/C: stronger effect = lower value
Procedure, shortened: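 We assembled tumor spheroids that included a stromal compartment of HUVEC and MSCs, then exposed them to targeted agents alone and together with PI3K pathway inhibitors. Concentration series descended by half-log from clinically achievable Cmax levels. Viability served as the endpoint.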

[1] = curve of first compound, second compound 0.00316 µM
[2] = curve of first compound, second compound 0.01 µM
[3] = curve of first compound, second compound 0.0316 µM
[4] = curve of first compound, second compound 0.1 µM
[5] = curve of first compound, second compound 0.316 µM
[6] = curve of first compound, second compound 1 µM
[7] = second compound 0.00316 µM, first compound 0.0316 µM
[8] = second compound 0.00316 µM, first compound 0.1 µM
[9] = second compound 0.00316 µM, first compound 0.316 µM
[10] = second compound 0.00316 µM, first compound 1 µM
[11] = second compound 0.00316 µM, first compound 3.16 µM
[12] = second compound 0.00316 µM, first compound 10 µM
[13] = second compound 0.01 µM, first compound 0.0316 µM
[14] = second compound 0.01 µM, first compound 0.1 µM
[15] = second compound 0.01 µM, first compound 0.316 µM
[16] = second compound 0.01 µM, first compound 1 µM
[17] = second compound 0.01 µM, first compound 3.16 µM
[18] = second compound 0.01 µM, first compound 10 µM
[19] = second compound 0.0316 µM, first compound 0.0316 µM
[20] = second compound 0.0316 µM, first compound 0.1 µM
[21] = second compound 0.0316 µM, first compound 0.316 µM
[22] = second compound 0.0316 µM, first compound 1 µM
[23] = second compound 0.0316 µM, first compound 3.16 µM
[24] = second compound 0.0316 µM, first compound 10 µM
[25] = second compound 0.1 µM, first compound 0.0316 µM
[26] = second compound 0.1 µM, first compound 0.1 µM
[27] = second compound 0.1 µM, first compound 0.316 µM
[28] = second compound 0.1 µM, first compound 1 µM
[29] = second compound 0.1 µM, first compound 3.16 µM
[30] = second compound 0.1 µM, first compound 10 µM
[31] = second compound 0.316 µM, first compound 0.0316 µM
[32] = second compound 0.316 µM, first compound 0.1 µM
[33] = second compound 0.316 µM, first compound 0.316 µM
[34] = second compound 0.316 µM, first compound 1 µM
[35] = second compound 0.316 µM, first compound 3.16 µM
[36] = second compound 0.316 µM, first compound 10 µM
[37] = second compound 1 µM, first compound 0.0316 µM
[38] = second compound 1 µM, first compound 0.1 µM
[39] = second compound 1 µM, first compound 0.316 µM
[40] = second compound 1 µM, first compound 1 µM
[41] = second compound 1 µM, first compound 3.16 µM
[42] = second compound 1 µM, first compound 10 µM
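Also: spheroids exposed to agents for seven days before luminescence read.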
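For viability, T/C in this document: luminescent signal used as a stand-in for spheroid viability; percent viability relative to DMSO vehicle control wells taken as 100%.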

CCCS(=O)(=O)Nc1ccc(F)c(C(=O)c2c[nH]c3ncc(-c4ccc(Cl)cc4)cc23)c1F + CC(Nc1ccc2c(c1)OCCn1cc(N3C(=O)OCC3C(F)F)nc1-2)C(N)=O showed an IC50 [1] of 5 µM, an IC50 [2] of 4.15 µM and an IC50 [3] of 3.38 µM. The IC50 [4] was 1.39 µM, the IC50 [5] was 0.637 µM and the IC50 [6] was 0.353 µM. For the same compound, the viability, T/C [7] was 93.5%, the viability, T/C [8] was 89.6% and the viability, T/C [9] was 98.9%. For the same compound, the viability, T/C [10] was 88%, the viability, T/C [11] was 71.9% and the viability, T/C [12] was 17.3%. For the same compound, the viability, T/C [13] was 100%, the viability, T/C [14] was 94.1% and the viability, T/C [15] was 86.9%. The viability, T/C [16] was 74.4%, the viability, T/C [17] was 67.9% and the viability, T/C [18] was 12.9%. The viability, T/C [19] was 103%, the viability, T/C [20] was 92.8% and the viability, T/C [21] was 83.4%. For the same compound, the viability, T/C [22] was 73.7%, the viability, T/C [23] was 55.6% and the viability, T/C [24] was 13.9%. The viability, T/C [25] was 99%, the viability, T/C [26] was 86.1% and the viability, T/C [27] was 76.8%. For the same compound, the viability, T/C [28] was 48.6%, the viability, T/C [29] was 40.9% and the viability, T/C [30] was 14.1%. It also gave a viability, T/C [31] of 95.2%, a viability, T/C [32] of 87.7% and a viability, T/C [33] of 56.7%. For the same compound, the viability, T/C [34] was 41.8%, the viability, T/C [35] was 30.6% and the viability, T/C [36] was 13.3%. The viability, T/C [37] was 77.7%, the viability, T/C [38] was 69.5% and the viability, T/C [39] was 44.4%. For the same compound, the viability, T/C [40] was 38.1%, the viability, T/C [41] was 32.3% and the viability, T/C [42] was 11.6%.
Cn1ncc(Cl)c1-c1cc(C(=O)NC(CN)Cc2cccc(F)c2)sc1Cl (stereo not drawn) + CC(Nc1ncnc2nc[nH]c12)c1cc2cccc(Cl)c2c(=O)n1-c1ccccc1 gave an IC50 [3] greater than 10 µM, an IC50 [4] of 8.15 µM and an IC50 [5] of 5.63 µM. For the same compound, the IC50 [6] was 5.17 µM, the IC50 (curve of first compound, second compound 3.16 µM) was 4.18 µM and the IC50 (curve of first compound, second compound 10 µM) was 2.26 µM. The viability, T/C [19] was 95.7%, the viability, T/C [20] was 109% and the viability, T/C [21] was 103%. The viability, T/C [22] was 69.4%, the viability, T/C [23] was 62.4% and the viability, T/C [24] was 47.8%. The viability, T/C [25] was 115%, the viability, T/C [26] was 101% and the viability, T/C [27] was 96.1%. It also gave a viability, T/C [28] of 83.5%, a viability, T/C [29] of 64.5% and a viability, T/C [30] of 46.5%. For the same compound, the viability, T/C [31] was 103%, the viability, T/C [32] was 101% and the viability, T/C [33] was 90.7%. It also gave a viability, T/C [34] of 75.4%, a viability, T/C [35] of 59.9% and a viability, T/C [36] of 41%. For the same compound, the viability, T/C [37] was 107%, the viability, T/C [38] was 102% and the viability, T/C [39] was 91.9%. The viability, T/C [40] was 78.6%, the viability, T/C [41] was 61.5% and the viability, T/C [42] was 35.2%. For the same compound, the viability, T/C (second compound 3.16 µM, first compound 0.0316 µM) was 96.8%, the viability, T/C (second compound 3.16 µM, first compound 0.1 µM) was 94% and the viability, T/C (second compound 3.16 µM, first compound 0.316 µM) was 86.3%. For the same compound, the viability, T/C (second compound 3.16 µM, first compound 1 µM) was 64.4%, the viability, T/C (second compound 3.16 µM, first compound 3.16 µM) was 57.6% and the viability, T/C (second compound 3.16 µM, first compound 10 µM) was 37.5%. The viability, T/C (second compound 10 µM, first compound 0.0316 µM) was 94.3%, the viability, T/C (second compound 10 µM, first compound 0.1 µM) was 89.6% and the viability, T/C (second compound 10 µM, first compound 0.316 µM) was 73.5%. The viability, T/C (second compound 10 µM, first compound 1 µM) was 60.5%, the viability, T/C (second compound 10 µM, first compound 3.16 µM) was 45.7% and the viability, T/C (second compound 10 µM, first compound 10 µM) was 38.5%.
In the case of COc1c(OCCCN2CCOCC2)ccc2c3n(c(=NC(=O)c4cnc(N)nc4)nc12)CCN3, the viability, T/C (compound 0.00316 µM) is reported as 102% [middle of 8 runs], the viability, T/C (compound 0.01 µM) is reported as 104% [middle of 8 runs] and the viability, T/C (compound 0.0316 µM) is reported as 102% [middle of 8 runs]. The viability, T/C (compound 0.1 µM) was 85.9% [middle of 8 runs], the viability, T/C (compound 0.316 µM) was 54.4% [middle of 8 runs] and the viability, T/C (compound 1 µM) was 31.7% [middle of 8 runs]. The IC50 (compound alone, run of 04/25/2023) was 380 nM [middle of 8 runs].
CC(C)NCC(C(=O)N1CCN(c2ncnc3c2C(C)CC3O)CC1)c1ccc(Cl)cc1 (stereo not drawn) + COc1c(OCCCN2CCOCC2)ccc2c3n(c(=NC(=O)c4cnc(N)nc4)nc12)CCN3 was tested, and the IC50 [1] was greater than 10 µM, the IC50 [2] was greater than 10 µM and the IC50 [3] was 7.59 µM. It also gave an IC50 [4] of 4.86 µM, an IC50 [5] of 0.0351 µM and an IC50 [6] of less than 0.0316 µM. It also gave a viability, T/C [7] of 101%, a viability, T/C [8] of 103% and a viability, T/C [9] of 106%. The viability, T/C [10] was 76.1%, the viability, T/C [11] was 68.3% and the viability, T/C [12] was 56.4%. For the same compound, the viability, T/C [13] was 109%, the viability, T/C [14] was 97.1% and the viability, T/C [15] was 101%. It also gave a viability, T/C [16] of 82.2%, a viability, T/C [17] of 64.5% and a viability, T/C [18] of 52.7%. It also gave a viability, T/C [19] of 104%, a viability, T/C [20] of 110% and a viability, T/C [21] of 85.6%. For the same compound, the viability, T/C [22] was 84.8%, the viability, T/C [23] was 60% and the viability, T/C [24] was 46.7%. For the same compound, the viability, T/C [25] was 73.2%, the viability, T/C [26] was 75% and the viability, T/C [27] was 66.2%. The viability, T/C [28] was 60.8%, the viability, T/C [29] was 57.4% and the viability, T/C [30] was 41.4%. The viability, T/C [31] was 47.9%, the viability, T/C [32] was 49% and the viability, T/C [33] was 46.5%. It also gave a viability, T/C [34] of 38.5%, a viability, T/C [35] of 37.5% and a viability, T/C [36] of 33.7%. The viability, T/C [37] was 29.4%, the viability, T/C [38] was 28.5% and the viability, T/C [39] was 28.7%. The viability, T/C [40] was 27.1%, the viability, T/C [41] was 26.9% and the viability, T/C [42] was 27.8%.
